Test results: patent US9926319B2, “Pyridyl piperidines” (MERCK PATENT GMBH, priority 2014, dated 2018)
Where two headings read alike, the source gives them in different places.

What was measured:
[1] = CLint (intrinsic clearance) assay, microsomal incubation; type: in vitro ADME, Human; conditions: NADPH, 37° C., up to 30 min; for microsomal CLint at 0.8 μM: human, liver microsomes, pH 7.4, human liver microsomes 0.5 mg/mL protein; for Human Clint: human liver microsomes 0.5 mg/mL protein
Experimental: 2. CLint (Intrinsic Clearance) Assay
A Tecan Genesis workstation (RWS ASY 150/8) was used to perform the microsomal incubations. Analysis was carried out using a Waters ACQUITY UPLC system coupled to an ABSciex API3000 mass spectrometer. Data analysis was performed using Assay Explorer (Symyx).
0.1 M potassium phosphate buffer pH 7.4 containing 1 mM MgCl2
15 mM NADPH in phosphate buffer
5.0 mg protein/mL liver microsomes in phosphate buffer
Each experiment consists of 12 test and 2 reference compounds. The reference compounds are incubated as a cocktail.
Dilution of test compounds was done in 2 steps from a 10 mM DMSO stock solution. First 4 μL stock solution was added to 196 μL of 20% DMSO in potassium phosphate buffer pH 7.4. In a second step 10 μL of the first dilution were added to […] potassium phosphate buffer and 100 μL internal standard solution to a final concentration of 0.8 μM. 100 μL of the final compound dilution were aliquoted into a 96 deep well plate. 12.5 μL liver microsomes were added to each well (0.5 mg/mL final protein concentration) and the samples preincubated for 5 min at 37° C. and 800 rpm agitation.
After the preincubation, 250 μL cold acetonitrile were added to the 0 min samples to prevent a reaction. Following this, 12.5 μL NADPH solution were added to all wells to start the incubation, with the exception of the 0 min and 30 min controls without cofactor, where the NADPH was substituted for phosphate buffer.
The incubations were stopped after 5, 10, 20 and 30 min by adding 250 μL cold acetonitrile to the individual wells.
The quenched samples were then centrifuged at 4000 g for 1 h at 4° C. 100 μL of the supernatant were transferred into 96 well plates for analysis.
The metabolic stability of each compound was determined by measurement of the change in LC-MS/MS peak area over time. Assay Explorer software was used to automatically calculate the slope k of the decline. The intrinsic clearance (CLint) of each compound was then calculated according to the formula: CLint(μL/min/mg protein)=k1000/protein concentration.
CLint is shown for each compound in Table 3 below.

[2] = tested on: Wnt pathway; assay: Cellular assay for Wnt pathway activity (luciferase reporter cell based assay); conditions: HEK293 luciferase reporter cell line (ER-DSH, TCF dependent promoter), induced with estrogen (1 μM), read-out: 7df3 IC50

SMILES | microsomal CLint at 0.8 μM [1] [µL/min/mg] | IC50 ([2]; 24 h) [nM] | Human Clint [1] [µL/min/mg] | IC50 ([2]; 24 hours) [nM]
CC1NC(=O)OC12CCN(c1c(Cl)cncc1-c1ccc(-c3cnn(C)c3)cc1)CC2 (racemic) [Example 97, 8-{3-Chloro-5-[4-(1-methyl-1H-pyrazol-4-yl)-phenyl]-pyridin-4-yl}-4-methyl-1-oxa-3,8-diaza-spiro[4.5]decan-2-one] | 26 | 42 |  | 
Cn1cc(-c2ccc(-c3cncc(Cl)c3N3CCC4(CCNC4=O)CC3)cc2)cn1 [Example 89, 8-{3-Chloro-5-[4-(1-methyl-1H-pyrazol-4-yl)-phenyl]-pyridin-4-yl}-2,8-diaza-spiro[4.5]decan-1-one] | 83 | 6.2 |  | 
CN1c2ccc(-c3cncc(Cl)c3N3CCC(F)(C(N)=O)CC3)cc2CS1(=O)=O [Example 31, 5′-Chloro-4-fluoro-3′-(1-methyl-2,2-dioxo-2,3-dihydro-1H-2l6-benzo[c]isothiazol-5-yl)-3,4,5,6-tetrahydro-2H-[1,4′]bipyridinyl-4-carboxylic acid amide] | 51 | 2.8 |  | 
Cn1ncc2cc(-c3cncc(Cl)c3N3CCC4(CC3)NC(=O)NC4=O)ccc21 [Example 2, 8-[3-Chloro-5-(1-methyl-1H-indazol-5-yl)-pyridin-4-yl]-1,3,8-triaza-spiro[4.5]decane-2,4-dione] | 15 | 46 |  | 
COCC1(C(N)=O)CCN(c2c(Cl)cncc2-c2ccc3c(c2)CS(=O)(=O)N3C)CC1 [Example 77, 5′-Chloro-4-methoxymethyl-3′-(1-methyl-2,2-dioxo-2,3-dihydro-1H-2l6-benzo[c]isothiazol-5-yl)-3,4,5,6-tetrahydro-2H-[1,4′]bipyridinyl-4-carboxylic acid amide] | 75 | 0.43 |  | 
Cn1cc(-c2ccc(-c3cncc(F)c3N3CCC4(CC3)CNC(=O)O4)cc2)cn1 [Example 79, 8-{3-Fluoro-5-[4-(1-methyl-1H-pyrazol-4-yl)-phenyl]-pyridin-4-yl}-1-oxa-3,8-diaza-spiro[4.5]decan-2-one] |  | 43 | 24 | 
CN1c2ccc(-c3cncc(Cl)c3N3CCC(C#N)(CO)CC3)cc2CS1(=O)=O [Example 85, 5′-Chloro-4-hydroxymethyl-3′-(1-methyl-2,2-dioxo-2,3-dihydro-1H-2l6-benzo[c]isothiazol-5-yl)-3,4,5,6-tetrahydro-2H-[1,4′]bipyridinyl-4-carbonitrile] | 51 | 0.7 |  | 
Cn1ncc2cc(-c3cncc(Cl)c3N3CCC4(CC3)C(=O)NN=C4C(F)(F)F)ccc21 [Example 61, 8-[3-Chloro-5-(1-methyl-1H-indazol-5-yl)-pyridin-4-yl]-4-trifluoromethyl-2,3,8-triaza-spiro[4.5]dec-3-en-1-one] | 38 | 17 |  | 
CCC1=NNC(=O)C12CCN(c1c(Cl)cncc1-c1ccc(-c3cnn(C)c3)cc1)CC2 [Example 54, 8-{3-Chloro-5-[4-(1-methyl-1H-pyrazol-4-yl)-phenyl]-pyridin-4-yl}-4-ethyl-2,3,8-triaza-spiro[4.5]dec-3-en-1-one] | 82 | 0.92 |  | 
Cn1ncc2cc(-c3cncc(Cl)c3N3CCC4(CC3)C(=O)NCC4O)ccc21 (stereo not drawn) [Example 70, 8-[3-Chloro-5-(1-methyl-1H-indazol-5-yl)-pyridin-4-yl]-4-hydroxy-2,8-diaza-spiro[4.5]decan-1-one] |  |  | 24 | 20
CN1c2ccc(-c3cncc(Cl)c3N3CCC(N)(C(N)=O)CC3)cc2CS1(=O)=O [Example 44, 4-Amino-5′-chloro-3′-(1-methyl-2,2-dioxo-2,3-dihydro-1H-2l6-benzo[c]isothiazol-5-yl)-3,4,5,6-tetrahydro-2H-[1,4′]bipyridinyl-4-carboxylic acid amide] | < 10 | 5.1 |  | 
Cn1cc(-c2ccc(-c3cncc(Cl)c3N3CCC4(CC3)C(=O)NN=C4C(F)(F)F)cc2)cn1 [Example 59, 8-{3-Chloro-5-[4-(1-methyl-1H-pyrazol-4-yl)-phenyl]-pyridin-4-yl}-4-trifluoromethyl-2,3,8-triaza-spiro[4.5]dec-3-en-1-one] | 43 | 17 |  | 
CN1c2ccc(-c3cncc(Cl)c3N3CCC4(CC3)C[C@H](C(F)(F)F)NC4=O)cc2CS1(=O)=O [Example 53, (R)-8-[3-Chloro-5-(1-methyl-2,2-dioxo-2,3-dihydro-1H-2l6-benzo[c]isothiazol-5-yl)-pyridin-4-yl]-3-trifluoromethyl-2,8-diaza-spiro[4.5]decan-1-one] | 42 | 15 |  | 
CNC(=O)c1ccc(-c2cncc(Cl)c2N2CCC3(CCNC3=O)CC2)cc1 [Example 22, 4-[5-Chloro-4-(1-oxo-2,8-diaza-spiro[4.5]dec-8-yl)-pyridin-3-yl]-N-methyl-benzamide] | 27 | 46 |  | 

Next, values leading:

microsomal CLint at 0.8 μM [1] [µL/min/mg] | IC50 ([2]; 24 h) [nM] | Human Clint [1] [µL/min/mg] | IC50 ([2]; 24 hours) [nM] | SMILES
29 | 30 |  |  | O=C1NCC2(CCN(c3c(Cl)cncc3-c3ccc(-c4cnn([C@@H]5CCC[C@H]5O)c4)cc3)CC2)O1 [Example 63, 8-(3-Chloro-5-{4-[1-((1R,2R)-2-hydroxy-cyclopentyl)-1H-pyrazol-4-yl]-phenyl}-pyridin-4-yl)-1-oxa-3,8-diaza-spiro[4.5]decan-2-one]
12 | 16 |  |  | O=C1NCCC12CCN(c1c(Cl)cncc1-c1ccc3c(c1)C(O)CS3(=O)=O)CC2 (stereo not drawn) [Example 29, 8-[3-Chloro-5-(3-hydroxy-1,1-dioxo-2,3-dihydro-1H-1l6-benzo[b]thiophen-5-yl)-pyridin-4-yl]-2,8-diaza-spiro[4.5]decan-1-one]
< 10 | 17 |  |  | O=C1NCC2(CCN(c3c(Cl)cncc3-c3ccc(-c4cnn(CCO)c4)cc3)CC2)O1 [Example 15, 8-(3-Chloro-5-{4-[1-(2-hydroxy-ethyl)-1H-pyrazol-4-yl]-phenyl}-pyridin-4-yl)-1-oxa-3,8-diaza-spiro[4.5]decan-2-one]
13 | 28 |  |  | Cn1ncc2ccc(-c3cncc(Cl)c3N3CCC4(CC3)CNC(=O)O4)cc21 [Example 10, 8-[3-Chloro-5-(1-methyl-1H-indazol-6-yl)-pyridin-4-yl]-1-oxa-3,8-diaza-spiro[4.5]decan-2-one]
23 | 42 |  |  | O=C1NCC2(CCN(c3c(Cl)cncc3-c3ccc4c(c3)CS(=O)(=O)C4)CC2)O1 [Example 48, 8-[3-Chloro-5-(2,2-dioxo-2,3-dihydro-1H-2l6-benzo[c]thiophen-5-yl)-pyridin-4-yl]-1-oxa-3,8-diaza-spiro[4.5]decan-2-one]
37 | 34 |  |  | O=C1NCC2(CCN(c3c(Cl)cncc3-c3ccc(-c4cnn([C@H]5CCC[C@@H]5O)c4)cc3)CC2)O1 [Example 62, 8-(3-Chloro-5-{4-[1-((1S,2S)-2-hydroxy-cyclopentyl)-1H-pyrazol-4-yl]-phenyl}-pyridin-4-yl)-1-oxa-3,8-diaza-spiro[4.5]decan-2-one]
39 | 4.2 |  |  | CC1NC(=O)OC12CCN(c1c(Cl)cncc1-c1ccc3c(c1)CS(=O)(=O)N3C)CC2 (racemic) [Example 96, 8-[3-Chloro-5-(1-methyl-2,2-dioxo-2,3-dihydro-1H-2l6-benzo[c]isothiazol-5-yl)-pyridin-4-yl]-4-methyl-1-oxa-3,8-diaza-spiro[4.5]decan-2-one]
30 | 20 |  |  | CC(C)(C)N1Cc2cc(-c3cncc(Cl)c3N3CCC4(CCNC4=O)CC3)ccc2S1(=O)=O [Example 26, 8-[3-(2-tert-Butyl-1,1-dioxo-2,3-dihydro-1H-1l6-benzo[d]isothiazol-5-yl)-5-chloro-pyridin-4-yl]-2,8-diaza-spiro[4.5]decan-1-one]
58 | 2 |  |  | Cn1nc(N)c2ccc(-c3cncc(Cl)c3N3CCC4(CC3)CNC(=O)O4)cc21 [Example 27, 8-[3-(3-Amino-1-methyl-1H-indazol-6-yl)-5-chloro-pyridin-4-yl]-1-oxa-3,8-diaza-spiro[4.5]decan-2-one]
< 10 | 4.5 |  |  | CCn1cc2cc(-c3cncc(Cl)c3N3CCC4(CC3)CNC(=O)O4)ccc2n1 [Example 95, 8-[3-Chloro-5-(2-ethyl-2H-indazol-5-yl)-pyridin-4-yl]-1-oxa-3,8-diaza-spiro[4.5]decan-2-one]
